A short description of test [1]: Hyperinsulinemic euglycemic clamp in Zucker rats (rate of glucose disposal, Rd). The test is classed as in vivo, rat. As to conditions: obese Zucker (fa/fa) rats, post-Rx, pioglitazone 10 mg/kg/day in chow for 3 weeks; average ± standard error. The procedure:
Peripheral insulin sensitivity (measured as the rate of glucose disposal, Rd) of the rat and human groups was measured using the hyperinsulinemic euglycemic clamp procedure. Clinical characteristics of the rats and humans are detailed in Table 1. OPN expression in adipose tissue was elevated in obese, insulin resistant rats (17-fold) and humans (4.6-fold) compared to insulin sensitive lean controls. […] In fact, when the pre-treatment patient data was combined, there was a significant correlation between adipose tissue OPN RNA levels and Rd (FIG. 1C).
Male C57Bl/6J WT mice (cat #000664) and OPN KO mice (B6.Cg-Spp1tm2blh/J, cat #004936) were purchased from Jackson Laboratories. […]
(§1) Insulin sensitivity was determined by hyperinsulinemic euglycemic clamp, as previously published (Hevener, A L, et al., 2001, Diabetes 50, 2316-2322). […] Plasma glucose specific activity was measured after deproteinization with barium hydroxide and zinc sulfate (Revers, R R, 1984, J Clin Invest 73, 664-672). Hepatic glucose output (HGO) and glucose disposal rate (GDR) were calculated for the basal period and the steady-state portion of the glucose clamp using the Steele equation for steady-state conditions (Steele R. Influences of glucose loading and of injected insulin on hepatic glucose output. Ann N Y Acad Sci 82: 420-430, 1959). […]

A short description of test [2]: Body weight and fasting plasma analyses in Zucker rats. The test is classed as in vivo, rat. As to conditions: obese Zucker (fa/fa) rats, post-Rx, pioglitazone 10 mg/kg/day in chow for 3 weeks; average ± standard error.
Excerpt: Male C57Bl/6J WT mice (cat #000664) and OPN KO mice (B6.Cg-Spp1tm2blh/J, cat #004936) were purchased from Jackson Laboratories. This OPN KO mouse line has been backcrossed into the C57Bl/6J background >10 generations. Mouse diets were as follows: normal chow diet (12% kcal from fat; Purina 5001, LabDiet) and high fat diet (41% kcal from fat; TD96132, Harlan Teklad). Mice were 4-6 months of age and age-matched in all studies. Male lean Zucker (fa/+) and fatty Zucker (fa/fa) rats were purchased from Charles River. […] All rats were nine weeks of age at time of terminal metabolic studies and tissue harvest. All animals were housed 1-3 per cage under controlled light (12:12 light:dark) and climate conditions. Animals had unlimited access to food and water.
as §1
Plasma insulins were measured by radioimmune assay kit (Linco Research, St. Charles, Mo.). Plasma FFA levels were measured enzymatically using a commercially available kit (NEFA C; Wako Chemicals USA). Triglycerides were measured using the Triglyceride-SL Assay (Diagnostic Chemicals Ltd.). Cholesterol was measured using the Chol kit and Roche/Hitachi analyzer (Roche). Tissue lysates were analyzed by SDS-PAGE, western blotting and chemiluminescence and by ELISA. Signal intensities of chemiluminescence autoradiographs were densitometrically quantified using a digital Kodak 3D Imagestation and associated digital image analysis software (Kodak, New. Haven, Conn.). […]

The nature of test [3]: Hyperinsulinemic-euglycemic clamp in human patients (rate of glucose disposal, Rd). The test is classed as in vivo. The following applies: obese, insulin resistant patients, post-Rx, pioglitazone 45 mg/day for 3 months; average ± standard error.
The nature of test [4]: BMI and fasting plasma analyses in human patients. The format is in vivo. The following applies: post-Rx, pioglitazone 45 mg/day for 3 months, average ± standard error. The protocol: Baseline plasma samples were drawn and hyperinsulinemic-euglycemic clamps were performed in the morning after a 10 hr fast as previously described (Frias, J P et al., 2000, Diabetes Care 23, 64-69; Yu, J G et al., 2002, Diabetes 51, 2968-2974). The experimental protocol was approved by the Institutional Review Board of the University of California, San Diego. Informed written consent was obtained from each subject.
Plasma insulins were measured by radioimmune assay kit (Linco Research, St. Charles, Mo.). Plasma FFA levels were measured enzymatically using a commercially available kit (NEFA C; Wako Chemicals USA). Triglycerides were measured using the Triglyceride-SL Assay (Diagnostic Chemicals Ltd.). Cholesterol was measured using the Chol kit and Roche/Hitachi analyzer (Roche). Tissue lysates were analyzed by SDS-PAGE, western blotting and chemiluminescence and by ELISA. Signal intensities of chemiluminescence autoradiographs were densitometrically quantified using a digital Kodak 3D Imagestation and associated digital image analysis software (Kodak, New. Haven, Conn.). IL-1β, IL-12p70, IFNγ, IL-6, IL-10, Cxcl1 and TNFα levels in plasma and tissue lysates were measured using a multiplex (7-plex) ELISA (Meso Scale Discovery).

[5] abbreviates: lean, insulin sensitive patients.
[6] abbreviates: obese, insulin resistant patients.

Take `CCc1ccc(CCOc2ccc(CC3SC(=O)NC3=O)cc2)nc1` (stereo not shown) [pioglitazone]: the “Glucose disposal, Rd” value in test [1] was 30.6 ± 2.9 mg/kg/min. In test [2], the “Fasting plasma free fatty acids” value is reported as 0.69 ± 0.29 mmol/L, the Fasting plasma glucose was 124.8 ± 4.0 ^ mg/dL and the Fasting plasma triglyceride is listed as 108.0 ± 16.1 mg/dL. In addition, the “Glucose disposal, Rd” value in test [3] amounted to 5.9 ± 0.5 mg/kg/min. In test [4] (setting [5]), this compound came in with a Fasting plasma free fatty acids of 414 ± 90 µM, a Fasting plasma glucose of 87.6 ± 3.1 mg/dL, a Fasting plasma insulin of 10.1 ± 2.2 pmol/L and a Fasting plasma triglyceride of 76.0 ± 9.2 mg/dL. In test [4] (setting [6]), the Fasting plasma free fatty acids is 434 ± 59 µM, the Fasting plasma glucose is listed as 91.7 ± 2.5 mg/dL, the Fasting plasma insulin was 13.6 ± 1.6 pmol/L and the Fasting plasma triglyceride is given as 137.7 ± 7.2 mg/dL.

(Values after US20110008328A1, “METHOD FOR CONTROLLING GLUCOSE UPTAKE AND INSULIN SENSITIVITY” (Pfizer Inc., priority 2007, published 2011).)
